Entries after “also recorded” stand apart in the source; their conditions may differ.
Experiments:
[1] = test system: CHT hematopoiesis (HSPC markers cmyb and runx1 in the CHT); assay: Zebrafish embryo chemical treatment and dose matrices, whole mount in situ hybridization of cmyb/runx1 in the CHT; assay type: in vivo; conditions: for cmyb/runx1 expression in the CHT (CHT hematopoiesis): agent alone, treatment from 48 hpf, 72 hpf embryos; for Experimental data: concentration of S1PR1 modulating agent in the combination effective at increasing HSC engraftment / Experimental data: concentration of S1PR1 modulating agent in the combination effective at increasing HSC mobilization: combination with AMD3100; for mobilization of HSC from the bone marrow in vivo: combination with AMD3100 in specific ratios; for rescue of the effect of 25 μM W146 on cmyb/runx1 expression: addition of agent to W146
Description: Transgenic zebrafish embryos were intercrossed and selected using epifluorescence (e.g. Runx1+23:EGFP, cmyb:EGFP^4, cd41:EGFP^2, kdrl:DsRed2^31). Live imaging was performed using a spinning disk confocal microscope with an incubated chamber. Zebrafish embryos were mounted and imaged as previously described. Live mouse fetal liver explants were prepared as previously described for aorta-gonad-mesonephros tissue^10. Image processing was done primarily with Fluorender^32 and ImageJ, which included the MTrackJ plugin^33 for manual cell tracking. For chemical screening and dose matrices, stage-matched AB embryos were dechorionated and arrayed 8-10/well in 96-well mesh-bottomed plates (Millipore). Embryos were treated from 48-72 hpf by placement directly in 96-well receiver plates containing small molecules diluted in E3 media+1% DMSO. Embryos were checked for circulation before fixation. Whole mount in situ hybridization was performed as previously described^34, with the addition of 0.2% glutaraldehyde to 4% formaldehyde at the post-fixation step. […] Lineage tracing was performed by injecting cd41:EGFP positive embryos with caged fluorescein conjugated to dextran (MW 10000). Embryos were uncaged in the DA at 28 hpf with a UV laser. Embryos were raised to 46 hpf in E3 media or E3+S1PR1 antagonist W146 (10 μM), then fixed for antibody staining to detect double positive cd41:EGFP and uncaged FITC HSPCs. Receptor fusion cDNAs (25 pg) were injected into one-cell embryos with Tol2 RNA (15 pg). Flow cytometry was performed using a LSR II and cells were sorted using a FACSAria (BD Biosciences). Flow cytometry data was analyzed using FACSDiva and FlowJo software.
Having followed newly born aortic HSPCs to the intermediate tissue, the inventors assessed the signaling pathways involved in embryonic migration. The inventors designed a chemical genetic screen to introduce small molecules to the zebrafish embryo from the peak window of HSPC migration to the CHT (48-72 hpf).

[2] = test system: HSPCs in the CHT; assay: Time-lapse live imaging and cell tracking in the CHT (Runx1+23:EGFP; kdrl:DsRed2); assay type: in vivo, zebrafish
Description: (§1) Transgenic zebrafish embryos were intercrossed and selected using epifluorescence (e.g. Runx1+23:EGFP, cmyb:EGFP^4, cd41:EGFP^2, kdrl:DsRed2^31). Live imaging was performed using a spinning disk confocal microscope with an incubated chamber. Zebrafish embryos were mounted and imaged as previously described. Live mouse fetal liver explants were prepared as previously described for aorta-gonad-mesonephros tissue^10. Image processing was done primarily with Fluorender^32 and ImageJ, which included the MTrackJ plugin^33 for manual cell tracking. For chemical screening and dose matrices, stage-matched AB embryos were dechorionated and arrayed 8-10/well in 96-well mesh-bottomed plates (Millipore). Embryos were treated from 48-72 hpf by placement directly in 96-well receiver plates containing small molecules diluted in E3 media+1% DMSO. Embryos were checked for circulation before fixation. Whole mount in situ hybridization was performed as previously described^34, with the addition of 0.2% glutaraldehyde to 4% formaldehyde at the post-fixation step. Morpholino (s1pr1/edg1 ATG-MO^23 obtained from Gene Tools, LLC) was injected into one-cell Tu or cmyb:EGFP; kdrl:DsRed2 transgenic embryos at a 1 ng dose (higher doses stop circulation). Lineage tracing was performed by injecting cd41:EGFP positive embryos with caged fluorescein conjugated to dextran (MW 10000). Embryos were uncaged in the DA at 28 hpf with a UV laser. Embryos were raised to 46 hpf in E3 media or E3+S1PR1 antagonist W146 (10 μM), then fixed for antibody staining to detect double positive cd41:EGFP and uncaged FITC HSPCs. Receptor fusion cDNAs (25 pg) were injected into one-cell embryos with Tol2 RNA (15 pg). Flow cytometry was performed using a LSR II and cells were sorted using a FACSAria (BD Biosciences). Flow cytometry data was analyzed using FACSDiva and FlowJo software.
Time-lapse live imaging. Staged transgenic zebrafish embryos were selected and mounted for imaging in 1% LMP agarose with E3 media and tricaine as described. Pregnant C57/BL6 mice were dissected at E11 (vaginal plug observation was E0). Embryos were removed from the uterus in PBS with 10% FCS and penicillin-streptomycin. Embryos were staged as E11 by counting ˜42 somite pairs. Fetal livers were removed from the embryo and treated as described by Boisset and colleagues (“protocol b”)^10. Zebrafish embryos and fetal liver explants were imaged in MatTek glass bottom dishes (No. 1.5 cover slip). […] Quantification of 12 hours of CHT tracking data per time-lapse movie allowed us to define engrafted cells as stationary (i.e. a speed of <0.31 microns/minute) and resident in the CHT for at least 3 hours, otherwise they were scored as migratory and transient. […]

[3] = test system: HSPCs in the CHT; assay: Lineage tracing of HSPCs from DA to CHT (cd41:EGFP and uncaged FITC); assay type: in vivo, zebrafish; conditions: W146 10 μM, versus control
Description: as §1, with “Lineage tracing was performed by injecting cd41:EGFP positive embryos with caged fluorescein conjugated to dextran (MW 10000). Embryos were uncaged in the DA at 28 hpf with a UV laser. Embryos were raised to 46 hpf in E3 media or E3+S1PR1 antagonist W146 (10 μM), then fixed for antibody staining to detect double positive cd41:EGFP and uncaged FITC HSPCs. Receptor fusion cDNAs (25 pg) were injected into one-cell embryos with Tol2 RNA (15 pg). Flow cytometry was performed using a LSR II and cells were sorted using a FACSAria (BD Biosciences).” left out, “software. […]” for “software.”

[4] = test system: autoimmune myocarditis; conditions: rat model for autoimmune myocarditis; cited from earlier work
[5] = in vivo; cited from earlier work
[6] = target: T1, endothelial S1P1 receptors (Mus musculus, UniProt O08530); conditions: cited from earlier work
T1 construct: host or cells: vascular endothelium (as cited)

[7] = target: T1, endothelial S1P1 receptors; conditions: type I diabetic vascular endothelium; cited from earlier work
[8] = W146 10 μM, 38-50 hpf, versus control
[9] = addition of AUY954, 54 hpf embryos
[10] = dose matrices, agent combined with AMD3100

T1 sequence (O08530 whole entry): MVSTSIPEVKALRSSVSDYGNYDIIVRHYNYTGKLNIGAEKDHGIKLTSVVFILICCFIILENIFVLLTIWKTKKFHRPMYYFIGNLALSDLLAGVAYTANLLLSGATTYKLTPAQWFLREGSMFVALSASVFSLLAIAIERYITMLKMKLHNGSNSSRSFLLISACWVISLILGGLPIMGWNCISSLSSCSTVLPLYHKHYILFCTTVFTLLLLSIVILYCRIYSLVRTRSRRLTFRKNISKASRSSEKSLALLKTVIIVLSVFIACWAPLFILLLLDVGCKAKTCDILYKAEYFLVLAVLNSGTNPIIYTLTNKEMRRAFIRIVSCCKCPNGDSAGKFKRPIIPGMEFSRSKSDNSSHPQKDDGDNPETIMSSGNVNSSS

c1cc(CN2CCCNCCNCCCNCC2)ccc1CN1CCCNCCNCCCNCC1 [AMD3100, 1,1′-[1,4-Phenylenebis(methylene)]bis[1,4,8,11-tetraazacyclotetradecane]]
cmyb/runx1 expression in the CHT ([1]; AMD3100 25 μM, 54 hpf embryos): greatly decreases
cmyb/runx1 expression in the CHT (CHT hematopoiesis) [1]: dose-dependently reduces; also recorded: decreases CHT hematopoiesis
CHT hematopoiesis ([1]; each agent alone at the doses of the effective FTY720/AMD3100 combination): no effect

CCCCCCc1cccc(NC(=O)[C@H](N)CCP(=O)(O)O)c1 [Compound W146, (R)-3-Amino-4-(3-hexylphenylamino)-4-oxobutylphosphonic acid]
CHT score in dose matrix ([1]; 5 μM AMD3100 and 10 μM W146): greatest CHT score
cmyb/runx1 expression in the CHT ([1]; W146 25 μM, 54 hpf embryos): decreases
Experimental data: concentration of S1PR1 modulating agent in the combination effective at increasing HSC engraftment [1]: 10 µM
Experimental data: concentration of S1PR1 modulating agent in the combination effective at increasing HSC mobilization [1]: 5 μM W146
mobilization of HSC from the bone marrow in vivo [1]: improves mobilization
number of engrafted cells [2, 8]: decreased
percentage of migratory cells [2, 8]: increased
tracked cells in the CHT [2, 8]: increased
CHT colonization ([2]; embryos in the antagonist during imaging): interferes with CHT colonization
number of lineage traced HSPCs in the CHT ([3]; embryos raised to 46 hpf): increased
morphology of lineage traced HSPCs in the CHT [3]: morphology that differed from the control; also recorded: morphological changes

O=C(O)CCNCc1ccc2sc(-c3ccc(-c4ccccc4)c(C(F)(F)F)c3)cc2c1 [AUY954, 3-[[2-[4-phenyl-3-(trifluoromethyl)phenyl]-1-benzothiophen-5-yl]methylamino]propanoic acid]
CHT score (greatest engraftment in dose matrix) ([1]; 10 μM AMD3100 and 12.5 μM AUY945): +2
rescue of the cmyb/runx1 decrease caused by 25 μM AMD3100 [1, 9]: partially rescued
rescue of the effect of 25 μM SKI-2 [1, 9]: rescued
rescue of the effect of 25 μM W146 on cmyb/runx1 expression ([1]; 54 hpf embryos): rescued
Experimental data: concentration of S1PR1 modulating agent in the combination effective at increasing HSC engraftment [1]: 12.5 µM
CHT hematopoiesis [1, 10]: synergistic increases

CCCCCCCCCCCCC/C=C/[C@@H](O)[C@@H](N)COP(=O)(O)O [Compound S1P, sphingosine-1-phosphate]
rescue of the effect of 25 μM W146 on cmyb/runx1 expression ([1]; 54 hpf embryos): rescued
cmyb/runx1 expression in the CHT (CHT hematopoiesis) [1]: altered the migration pattern of HSPCs; also recorded: alters cmyb/runx1 expression pattern
CHT hematopoiesis [1, 10]: synergistic increases

Oc1ccc(Nc2nc(-c3ccc(Cl)cc3)cs2)cc1 [SKI-2]
effect of SKI-2 in CHT hematopoiesis assay ([1]; SKI-2 25 μM, 54 hpf embryos): depleting endogenous levels of S1P
effect on improving engraftment (CHT) ([1]; SKI-2 alone): little effect

NC(CO)(CO)CCc1ccc(Sc2cccc(OCc3ccccc3)c2)cc1Cl [KRP-203]
therapeutic efficacy [4]: therapeutic efficacy

FC(F)(F)c1cccc(-c2noc(-c3cc(-c4ccccc4)c(C(F)(F)F)s3)n2)c1 [SEW2871, 5-[4-phenyl-5-(trifluoromethyl)-2-thienyl]-3-[3-(trifluoromethyl)phenyl]-1,2,4-oxadiazole]
CHT score (greatest engraftment in dose matrix) ([1]; 10 μM AMD3100 and 10 μM SEW2871): +2
Experimental data: concentration of S1PR1 modulating agent in the combination effective at increasing HSC engraftment [1]: 10 µM
Experimental data: concentration of S1PR1 modulating agent in the combination effective at increasing HSC mobilization [1]: 15 µM
mobilization of HSC from the bone marrow in vivo [1]: improves mobilization
CHT hematopoiesis [1, 10]: synergistic increases
bradycardia [5]: does not induce bradycardia
protection of the vasculature against TNFα-mediated monocyte/endothelial interactions [6]: protects
proinflammatory monocyte/endothelial interactions [7]: prevents
